Data on 6 compounds can be found in US9321798B2, “Phosphoramidite derivatives of gemcitabine for use in the treatment of cancer” (NuCana BioMed Limited, priority 2010, dated 2016).

In this experiment the test system is Human colon cancer cell line HRT18. Briefly: MTT cytotoxicity / cell proliferation assay in HRT18 colon tumour cell line. The experiment is classed as cell-based. The conditions noted are these: HRT-18, HRT18 cells, 72 h incubation, 0.128-2000 nM, read-out: EC50 (nM) Colorectal cell HRT18. The text has this: The compounds can be assayed by many in vitro or in vivo methods, but in the first instance a cell proliferation assay is rapid and informative. Many tumour cell lines can be used for the assay, we herein report typical data for target compounds in HRT18 colon tumour cell line, using standard MTT assay methods, typical in many laboratories.
Human colon cancer cell line HRT18 were purchased from the European Collection of Animal Cell Cultures (ECACC, Salisbury, England). Cytoxicity assay was based on MTT assay as we previously reported. The method is based on the ability of viable mitochondria to convert MTT, a soluble tetrazolium salt (3-[4,5-dimethylthiazd-2-yl]-2,5-diphenyltetrazolium bromide) into an insoluble formazan precipitate that is dissolved and quantified by spectrophotometry. A 96-well culture cell culture plate was used. Cells were counted with a haemocytomete counting chamber and a specific number (4000 per well) of cells were seeded to each well with culture medium (DMEM). Compounds, dissolved in DMSO, were series diluted (1:5) in culture medium, to cover a final concentration range between 0.128 and 2000 nM. The culture plate was incubated for 72 h at 37° C. The cells were washed twice with BSS. A solution of MTT in 0.5 mg/mL in culture medium was added into each well. The culture plate was then incubated at 37° C. for 4 h. MTT was then removed by aspiration. The crystals produced by MTT reagent within the cells were then extracted by the addition of 100 µL of Triton X100 (10% in water). The cells were incubated at 4° C. for 24 h. The absorbance of the colorimetric products was then measured at a wavelength of 540 nm using a spectrophotometer (Titertecek).

As a reminder, the EC50 is the concentration giving half of the maximal effect. `CC(C)OC(=O)[C@H](C)NP(=O)(N[C@@H](C)C(=O)OC(C)C)OC[C@H]1O[C@@H](n2ccc(N)nc2=O)C(F)(F)C1O` (stereo partly drawn) [CPF461]: the EC50 stood at 3.2 nM.

Consider `C[C@H](NP(=O)(N[C@@H](C)C(=O)OCc1ccccc1)OC[C@H]1O[C@@H](n2ccc(N)nc2=O)C(F)(F)C1O)C(=O)OCc1ccccc1` (stereo partly drawn) [CPF457, 2′-Deoxy-2′,2′-difluoro-D-cytidine-5′-O-bis(benzoxy-L-alaninyl)] phosphate], for which the EC50 was 14 nM.

Regarding `Nc1ccn([C@@H]2O[C@H](CO)[C@@H](O)C2(F)F)c(=O)n1` [Gemcitabine, gemcitabine], the EC50 was found to be 64 nM.

Regarding `C[C@H](NP(=O)(N[C@@H](C)C(=O)OCC(C)(C)C)OC[C@H]1O[C@@H](n2ccc(N)nc2=O)C(F)(F)C1O)C(=O)OCC(C)(C)C` (stereo partly drawn) [CPF460], the EC50 was found to be 1.6 nM.

In the case of `C[C@H](NP(=O)(N[C@@H](C)C(=O)OC1CCCCC1)OC[C@H]1O[C@@H](n2ccc(N)nc2=O)C(F)(F)C1O)C(=O)OC1CCCCC1` (stereo partly drawn) [CPF458], the EC50 came out at 31 nM.

With `CCOC(=O)[C@H](C)NP(=O)(N[C@@H](C)C(=O)OCC)OC[C@H]1O[C@@H](n2ccc(N)nc2=O)C(F)(F)C1O` (stereo partly drawn) [CPF459, 2′-Deoxy-2′,2′-difluoro-D-cytidine-5′-O-bis(ethoxy-L-alaninyl)phosphate], the EC50 came out at 42 nM.
